This is an account of results in US6552008B1, “Thrombopoietin mimetics” (SmithKline Beecham Corporation, priority 1999, dated 2003).

The target in this assay is T1, TPO receptor (Homo sapiens, UniProt P40238).
T1 construct: expressed in transfected cells; host or cells: murine BaF3 cells (TPO-responsive line)
T1 sequence (P40238 26-635): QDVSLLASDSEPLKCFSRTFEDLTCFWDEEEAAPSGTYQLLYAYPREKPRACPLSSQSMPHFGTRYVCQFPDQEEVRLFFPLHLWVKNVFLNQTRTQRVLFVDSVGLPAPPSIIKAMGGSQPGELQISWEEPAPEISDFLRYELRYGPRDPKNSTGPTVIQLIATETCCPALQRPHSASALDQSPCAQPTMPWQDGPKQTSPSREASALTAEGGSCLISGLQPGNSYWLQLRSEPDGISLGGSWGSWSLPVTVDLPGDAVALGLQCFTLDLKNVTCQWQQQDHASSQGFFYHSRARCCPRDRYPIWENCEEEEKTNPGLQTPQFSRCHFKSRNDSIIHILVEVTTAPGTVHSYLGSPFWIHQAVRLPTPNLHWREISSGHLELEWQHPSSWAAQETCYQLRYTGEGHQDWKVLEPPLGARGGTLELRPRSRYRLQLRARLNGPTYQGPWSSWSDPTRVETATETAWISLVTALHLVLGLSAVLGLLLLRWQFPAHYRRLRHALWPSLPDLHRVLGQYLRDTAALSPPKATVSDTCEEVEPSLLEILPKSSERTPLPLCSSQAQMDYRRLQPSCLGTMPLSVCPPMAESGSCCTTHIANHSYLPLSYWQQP
The assay can be described thus: Luciferase assay in TPO-responsive BaF3 cell line. It counts as cell-based, murine. Here is the method:
Compounds of the present invention were tested for potency as mimetics of the TPO receptor in a Luciferase assay such as described in Lamb, et al., Nucleic Acids Research 23: 3283-3289 (1995) and Seidel, et al., Proc. Natl. Acad. Sci., USA 92: 3041-3045 (1995) by substituting a TPO-responsive BaF3 cell line (Vigon et al. Proc. Natl. Acad. Sci. USA 1992, 89, 5640-5644) for the HepG2 cells utilized therein. The murine BaF3 cells express TPO receptors and closely match the pattern of STAT (signal transducers and activators of transcription) activation observed in primary murine and human bone marrow cells.

The EC50 is the concentration that produces a half-maximal response. Read a high EC50 as a less potent agent.

The compound `CC1=NN(c2ccc(C(=O)O)cc2)C(=O)C1N=NC1C(=O)N(c2ccc(C)c(C)c2)N=C1C` (centres unmarked) [Example 1, 4-[1-(3,4-Dimethylphenyl)-3-methyl-4-(3-methyl-5-oxo-2-pyrazolin-4-ylazo)-5-oxo-2-pyrazolin-1-yl]benzoic Acid] gave an EC50 (TPO-responsive BaF3 cells) of 720 nM. The “activity, % TPO” value (relative to TPO) came to 56 % TPO.
